Key:
VEGFR2 = VEGFR2 (Homo sapiens (Human), UniProt P35968); assay: VEGF165 induced phosphorylation of VEGFR2 in endothelial cells (TeloHAEC, HTRF); type: cell-based; conditions: HAEC cells; n = 1 unless otherwise indicated
PAMPA permeability assay = type: in vitro ADME; conditions: PAMPA
MRC5 cells = assay: Cell viability assay in MRC5 cells (MTT)

Sequence of VEGFR2 (P35968 20-1356): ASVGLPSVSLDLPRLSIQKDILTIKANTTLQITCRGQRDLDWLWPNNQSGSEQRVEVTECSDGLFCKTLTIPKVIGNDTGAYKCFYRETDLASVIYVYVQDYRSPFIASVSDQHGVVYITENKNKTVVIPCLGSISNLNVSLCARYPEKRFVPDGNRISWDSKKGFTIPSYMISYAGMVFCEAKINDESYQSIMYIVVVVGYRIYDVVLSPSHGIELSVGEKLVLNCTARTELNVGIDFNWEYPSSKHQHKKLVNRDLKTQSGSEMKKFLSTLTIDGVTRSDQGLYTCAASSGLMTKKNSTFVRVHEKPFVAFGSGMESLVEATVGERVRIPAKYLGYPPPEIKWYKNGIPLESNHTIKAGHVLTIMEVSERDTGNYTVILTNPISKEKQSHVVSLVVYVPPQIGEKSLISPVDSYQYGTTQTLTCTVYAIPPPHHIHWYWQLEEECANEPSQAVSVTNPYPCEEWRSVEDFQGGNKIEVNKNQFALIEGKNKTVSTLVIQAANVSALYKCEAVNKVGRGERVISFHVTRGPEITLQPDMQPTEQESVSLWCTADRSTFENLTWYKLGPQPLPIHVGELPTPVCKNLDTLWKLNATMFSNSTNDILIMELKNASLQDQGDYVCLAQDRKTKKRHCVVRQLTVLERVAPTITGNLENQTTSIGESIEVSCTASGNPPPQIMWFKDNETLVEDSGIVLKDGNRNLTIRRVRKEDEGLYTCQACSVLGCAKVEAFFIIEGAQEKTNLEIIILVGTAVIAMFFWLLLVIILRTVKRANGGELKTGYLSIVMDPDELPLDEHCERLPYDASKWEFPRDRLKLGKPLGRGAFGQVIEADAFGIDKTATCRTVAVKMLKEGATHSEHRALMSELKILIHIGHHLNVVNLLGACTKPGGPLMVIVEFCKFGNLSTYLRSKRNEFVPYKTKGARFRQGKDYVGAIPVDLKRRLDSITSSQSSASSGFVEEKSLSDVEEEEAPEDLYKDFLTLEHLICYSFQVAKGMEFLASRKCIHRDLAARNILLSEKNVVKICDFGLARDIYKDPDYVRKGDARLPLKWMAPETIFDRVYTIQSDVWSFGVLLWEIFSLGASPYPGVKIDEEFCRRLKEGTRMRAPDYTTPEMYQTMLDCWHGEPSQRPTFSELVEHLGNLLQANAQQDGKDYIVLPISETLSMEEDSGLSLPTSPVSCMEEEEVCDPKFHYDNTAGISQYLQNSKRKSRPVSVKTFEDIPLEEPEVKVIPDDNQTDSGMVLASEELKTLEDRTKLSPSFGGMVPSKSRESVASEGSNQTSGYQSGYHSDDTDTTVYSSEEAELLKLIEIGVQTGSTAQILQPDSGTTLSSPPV

IC50 (VEGFR2): 32.2 nM
recovery at 5 hr, 10 μM (PAMPA permeability assay; pH 7, PAMPA, donor and acceptor compartments): 59.4%
Papp at 5 h, 10 μM (PAMPA permeability assay; pH 7, pH 7, 10 μM, 5 hr): 0.0679 ×10⁻⁶ cm/s
SMILES: COC(=O)c1cc2c(cc1C)/C(=C(/Nc1ccc(C(=O)NOCCCN3CCN(C)CC3)cc1)c1ccccc1)C(=O)N2 [Example 64]
Cell viability at 100 nM (%) (MRC5 cells; 100 nM): 86.5%
Cell viability at 300 nM (%) (MRC5 cells; 300 nM): 88.6%
Cell viability at 1000 nM (%) (MRC5 cells; 1000 nM): 73.7%

From patent US11046672B2, “Indolinones compounds and their use in the treatment of fibrotic diseases” (RESPIVERT LIMITED, priority 2015, dated 2021)
